Measured values reported in ChEMBL document CHEMBL5143730, “Structure-Based Design, Optimization, and Development of [18F]LU13: A Novel Radioligand for Cannabinoid Receptor Type 2 Imaging in the Brain with PET” (J Med Chem, 2022).

molecular target: Cannabinoid receptor 1 (Homo sapiens, UniProt P21554); experiment: Displacement of [3H]-SR141716A from recombinant human CB1 receptor expressed in CHO cells membrane incubated for 90 mins; assay type: cell membranes
Sequence (P21554 whole entry): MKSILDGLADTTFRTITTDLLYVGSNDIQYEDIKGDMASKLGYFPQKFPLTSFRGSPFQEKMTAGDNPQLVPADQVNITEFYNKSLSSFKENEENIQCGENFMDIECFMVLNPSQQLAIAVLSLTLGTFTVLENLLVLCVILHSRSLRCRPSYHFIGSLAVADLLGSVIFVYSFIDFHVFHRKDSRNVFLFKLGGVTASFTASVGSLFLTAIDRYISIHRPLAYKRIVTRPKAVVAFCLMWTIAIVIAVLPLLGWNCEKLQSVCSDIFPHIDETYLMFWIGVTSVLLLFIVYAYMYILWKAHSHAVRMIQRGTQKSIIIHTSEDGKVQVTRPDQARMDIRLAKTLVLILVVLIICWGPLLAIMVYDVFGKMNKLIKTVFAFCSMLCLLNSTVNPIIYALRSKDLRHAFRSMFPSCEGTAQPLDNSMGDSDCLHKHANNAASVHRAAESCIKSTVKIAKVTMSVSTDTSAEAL

Compound	Ki
C[C@H]1CC[C@H](NC(=O)c2cc3cccnc3n(CCOCCF)c2=O)CC1	780 nM
C[C@H]1CC[C@@H](NC(=O)c2cc3cccnc3n(CCCF)c2=O)CC1	115 nM
C[C@H]1CC[C@H](NC(=O)c2cc3cc(-c4ccco4)cnc3n(CCCCF)c2=O)CC1	49 nM
CC1CCC(NC(=O)c2cc3cc(Br)cnc3n(CCCCF)c2=O)CC1 (mixture of isomers)	4.8 nM
O=C(NC12CC3CC(CC(C3)C1)C2)c1cc2cccnc2n(CCOCCF)c1=O	3.9 nM
O=C(Nc1ccccc1)c1cc2cccnc2n(CCCCF)c1=O	2200 nM
C[C@H]1CC[C@H](NC(=O)c2cc3cc(-c4ccco4)cnc3n(Cc3ccccc3F)c2=O)CC1	> 10000 nM
O=C(NCc1ccc(F)cc1)c1cc2cccnc2n(CCCCF)c1=O	1100 nM
O=C(Nc1ccncc1)c1cc2cccnc2n(CCCCF)c1=O	> 1000 nM
C[C@H]1CC[C@@H](NC(=O)c2cc3cc(-c4ccco4)cnc3n(CCCCF)c2=O)CC1	3.3 nM
C[C@H]1CC[C@@H](NC(=O)c2cc3cc(-c4ccco4)cnc3n(Cc3ccccc3F)c2=O)CC1	65 nM
C[C@H]1CC[C@@H](NC(=O)c2cc3cccnc3n(CCCCF)c2=O)CC1	6 nM
C[C@H]1CC[C@@H](NC(=O)c2cc3cc(-c4ccco4)cnc3n(Cc3cccc(F)c3)c2=O)CC1	2.9 nM
O=C(Nc1ccc(F)cc1)c1cc2cccnc2n(CCCCF)c1=O	3900 nM
C[C@H]1CC[C@@H](NC(=O)c2cc3cccnc3n(CCOCCF)c2=O)CC1	13 nM
O=C(Nc1cccnc1)c1cc2cccnc2n(CCCCF)c1=O	> 1000 nM
C[C@H]1CC[C@H](NC(=O)c2cc3cccnc3n(CCCF)c2=O)CC1	4600 nM

molecular target: Cannabinoid receptor 2 (Homo sapiens, UniProt P34972); experiment: Displacement of [3H]-WIN55212-2 from human CB2 receptor transfected in CHO cells membrane incubated for 90 mins; assay type: cell membranes
Sequence (P34972 whole entry): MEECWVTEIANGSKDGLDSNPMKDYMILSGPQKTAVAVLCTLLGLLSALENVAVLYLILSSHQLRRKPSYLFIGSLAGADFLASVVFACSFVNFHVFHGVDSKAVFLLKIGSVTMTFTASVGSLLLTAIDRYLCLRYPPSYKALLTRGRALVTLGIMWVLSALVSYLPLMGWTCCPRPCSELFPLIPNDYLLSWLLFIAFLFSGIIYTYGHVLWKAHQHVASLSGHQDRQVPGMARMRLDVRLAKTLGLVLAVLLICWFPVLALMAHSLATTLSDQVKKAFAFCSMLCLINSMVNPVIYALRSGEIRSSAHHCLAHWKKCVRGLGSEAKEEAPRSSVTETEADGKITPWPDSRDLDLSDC

Compound	Ki
CC1CCC(NC(=O)c2cc3cc(Br)cnc3n(CCCCF)c2=O)CC1 (mixture of isomers)	> 10000 nM
O=C(NC12CC3CC(CC(C3)C1)C2)c1cc2cccnc2n(CCOCCF)c1=O	> 1000 nM
O=C(Nc1ccccc1)c1cc2cccnc2n(CCCCF)c1=O	> 10000 nM
O=C(NCc1ccc(F)cc1)c1cc2cccnc2n(CCCCF)c1=O	> 10000 nM
O=C(Nc1ccncc1)c1cc2cccnc2n(CCCCF)c1=O	> 10000 nM
C[C@H]1CC[C@@H](NC(=O)c2cc3cc(-c4ccco4)cnc3n(CCCCF)c2=O)CC1	> 10000 nM
C[C@H]1CC[C@@H](NC(=O)c2cc3cc(-c4ccco4)cnc3n(Cc3ccccc3F)c2=O)CC1	> 10000 nM
C[C@H]1CC[C@@H](NC(=O)c2cc3cccnc3n(CCCCF)c2=O)CC1	> 1000 nM
C[C@H]1CC[C@@H](NC(=O)c2cc3cc(-c4ccco4)cnc3n(Cc3cccc(F)c3)c2=O)CC1	> 10000 nM
O=C(Nc1ccc(F)cc1)c1cc2cccnc2n(CCCCF)c1=O	> 10000 nM
C[C@H]1CC[C@@H](NC(=O)c2cc3cccnc3n(CCOCCF)c2=O)CC1	> 10000 nM
O=C(Nc1cccnc1)c1cc2cccnc2n(CCCCF)c1=O	> 10000 nM

species on record: Homo sapiens; experiment: Selectivity ratio of Ki for displacement of [3H]-SR141716A from human CB1 receptor to Ki for displacement of [3H]-WIN55212-2 from human CB2 receptor

Compound	Ratio Ki
C[C@H]1CC[C@@H](NC(=O)c2cc3cc(-c4ccco4)cnc3n(CCCCF)c2=O)CC1	> 303
C[C@H]1CC[C@@H](NC(=O)c2cc3cc(-c4ccco4)cnc3n(Cc3ccccc3F)c2=O)CC1	> 153
C[C@H]1CC[C@@H](NC(=O)c2cc3cccnc3n(CCCCF)c2=O)CC1	> 167
C[C@H]1CC[C@@H](NC(=O)c2cc3cc(-c4ccco4)cnc3n(Cc3cccc(F)c3)c2=O)CC1	> 1000
C[C@H]1CC[C@@H](NC(=O)c2cc3cccnc3n(CCOCCF)c2=O)CC1	> 714
